We go through one compound from publication PMC6327044, “A chemical biology screen identifies a vulnerability of neuroendocrine cancer cells to SQLE inhibition” (Nature Communications, 2019).

What all share (experiment): cells
Common to all, as to design: species or system panel of 482 human cancer cell lines; ATPLite luminescence growth inhibition after treatment, nine-point dilution curve, 482 cancer cell lines, 384-well
Holding throughout (conditions): 72 h, recommended growth medium
Background: In ATP-based viability assays light output follows the ATP content of the culture.

Test [1] concerns MM1R_HAEMATOPOIETIC_AND_LYMPHOID_TISSUE. As for the experimental part:
(§1) Cells were seeded in recommended growth media in black 384-well tissue culture treated plates at 500 cells per well. Cells were equilibrated in assay plates via centrifugation and placed in incubators for 24 h before treatment. […] Treated assay plates were incubated with compounds for 72 h and subsequently were developed for endpoint analysis using ATPLite. Each compound was assessed using a nine-point dilution curve. Cells were defined as sensitive to a given compound based on GI75 < 2 μM with manual quality control of curve fit. GI75 is defined as a drug concentration that causes a 75% reduction in assay readout relative to dimethyl sulfoxide (DMSO)-treated controls. To identify novel cancer vulnerabilities, we screened a panel of 482 cell lines with a diverse set of metabolic inhibitors. […] Given that SCLC is thought to arise from neuroendocrine cells in the lung[9], we tested the NB-598 sensitivity in a panel of 42 SCLC cell lines. We calculated a quantitative metric of sensitivity for each cell line based on the area under the curve (AUC) of the mu/mu.max curve to more accurately capture the potency and extent of NB-598 effects. […] We categorized the SCLC cell lines as sensitive (5/42), moderate (11/42), and insensitive (26/42) (Fig. 1c and Supplementary Data 2) and focused all subsequent efforts on this indication. […] To further understand the patterns of sensitivity, we conducted RNA sequencing (RNA-Seq; Supplementary Data 3) and proteomic (Supplementary Data 4) characterization of the SCLC panel to identify unbiased expression signatures associated with enhanced NB-598 response (Supplementary Fig. 1 and Supplementary Fig. 2). Given the growing understanding that SCLC tumors can be further subdivided based on the status of lineage-defining transcription factors, ASLC1 and NEUROD1, we specifically investigated NB-598 response as the function of ASCL1 and NEUROD1 expression levels. […] To further dissect the NB-598 response within the ASCL1-high/NEUROD-low subset of 25 cell lines, we identified RNA-Seq and proteomics expression signatures associated with NB

For test [2], the system named is OCILY8_HAEMATOPOIETIC_AND_LYMPHOID_TISSUE. Here is the method:
as §1

Test [3] deals with TE11_OESOPHAGUS
As for the experimental part: as §1

Test [4] concerns NCIH661_LUNG. As for the experimental part: as §1
Test [5] relates to SUDHL6_HAEMATOPOIETIC_AND_LYMPHOID_TISSUE. As for the experimental part: as §1
Test [6] concerns TGBC11TKB_STOMACH. Here is the method: as §1
Test [7] deals with NCIH810_LUNG. Here is the method: as §1
Test [8] relates to SNU61_LARGE_INTESTINE
As for the experimental part:
as §1

The subject of test [9] is TE6_OESOPHAGUS
As for the experimental part: as §1

For test [10], the system named is LU139_LUNG. As for the experimental part:
as §1

Test [11] concerns HGC27_STOMACH. Here is the method:
as §1

The test system of test [12] is KYSE520_OESOPHAGUS
Here is the method:
as §1

For test [13], the system named is NCIH2126_LUNG. Here is the method: as §1
In test [14] the test system is AMO1_HAEMATOPOIETIC_AND_LYMPHOID_TISSUE. As for the experimental part:
as §1

Test [15] concerns KYSE510_OESOPHAGUS
Here is the method: as §1

In test [16] the test system is HUNS1_HAEMATOPOIETIC_AND_LYMPHOID_TISSUE. Here is the method: as §1

Usually GI50 stands for the concentration at which growth is held to half of that of the control. Read a high GI50 as less potent growth inhibition. Turning to `CCN(C/C=C/C#CC(C)(C)C)Cc1cccc(OCc2cc(-c3ccsc3)cs2)c1` [NB-598], the concentration for 50% growth inhibition (GI50) in test [1] is 8.87 µM; in [2], 9.19 µM; in [3], 8.58 µM; in test [4] it was 28.9 µM; in test [5], 0.0789 µM; in [6] it was 2.98 µM. In addition, the 50% growth inhibitory concentration (GI50) stood at 0.00733 µM in test [7]; 0.28 µM in [8]; 9.28 µM in test [9]; 0.0321 µM in test [10]; 14.8 µM in [11]; 45.5 µM in test [12]. For the same compound, the GI50 in [13] came out at 0.144 µM; in test [14], 0.032 µM; in [15], 0.0731 µM; in test [16], 0.17 µM.
